Measurements as given in patent publication EP1216701A1, “Process to increase the concentration of meiosis-activating sterols (MAS) in the cholesterol synthesis and the use of potent inhibitors in the process” (Schering Aktiengesellschaft, priority 2000, dated 2002).

Experiments:
HepG2 cells [1] = assay: Accumulation of cholesterol precursors / C29-sterols (MAS) in HepG2 cells, GC/MS (SIM); type: cell-based, Human; details: HepG2 cells; for Increases in FF-MAS / Increases in T-MAS: 1 µM, refers to Table 1; for Dienol (m/z 486) / Enol T-MAS (m/z 484) / Trienol FF-MAS (m/z 482): ± SD; for suppression of the Δ24 reduction step (accumulation of desmosterol): absence of miconazole, 10 µM potent inhibitors or 1 µM tamoxifen for 12 h
Experimental: (§1) Human hepatoma HepG2 cells were cultured to confluency in 60-mm dishes in phenol-red-free Dulbecco's modified Eagle's medium (DMEM) containing Pen-Strep (100 µg/ml), glucose (10 mM), sodium bicarbonate (45 mM) and glutamine (4 mM) supplemented with 10% fetal calf serum as described previously (24). At the beginning of the experiment the medium was changed to serum-free DMEM supplemented with 10% lipid-free "controlled process serum replacement" (CPSR-1). Compounds were added from ethanolic stock solutions to produce final ethanol concentrations of 0.1-0.3% v/v. Controls received the same amount of ethanol. Aminotriazole was added in an aqueous solution. Slices of rat testis (25 µm; 25-50 mg wet weight) were incubated under the same conditions in a shaking water bath (37°C). For isotopomer spectral analysis (ISA) of lathosterol, 1-^13C-acetate was added in an aqueous solution to a final concentration of 1 mM.
(§2) Cells were washed three times with ice cold PBS (pH 7.4) (once with 2 mg/ml BSA and twice with PBS alone). Epicoprostanol (1 µg in 50 µl of hexane) was added as internal standard to each sample. Sterols were extracted in hexane/isopropanol (3:2 v/v; two times with 4 ml). After drying under nitrogen and alkaline hydrolysis (1 N NaOH in 80% ethanol, 1.5 h at 70°C), the sterols were extracted with cyclohexane (two times with 3 ml). After drying under nitrogen, sterols were converted to their trimethylsilyl (TMS) derivatives by adding 100 µl bis(trimethylsilyl)trifluoracetamide (Pierce)/n-decane (1:1; v/v) and heating for 1 h at 70°C in a conical glass tube. This solution (1-2 µl) was used for gas-chromatography/mass-spectrometry (GC/MS). Rat testes (0.05-0.15 g) were homogenized manually, and lipids were extracted in hexane/isopropanol (3:2 v/v; two times with 4 ml). The extracts were deproteinized with acetone (3 ml) and processed as described above. The observed sterol levels in testis were normalized to correspond to 0.1 g of tissue (wet weight).
Gas-chromatography was done in the splitless mode with temperature programming as follows: 150°C for 1 min, followed by 20°C/min up to 260°C and 10°C/min up to 280°C (hold for 15 min). Mass spectral data were collected either in the full-scan mode (m/z 50-550) or by selective ion monitoring (SIM). For SIM analyses the electron multiplier voltage was raised by 300 V after the elution of lathosterol to increase the sensitivity of detection for lanosterol, dihydrolanosterol, methylsterols, dimethylsterols and plant sterols. The internal standard epicoprostanol was monitored at m/z 370. […] Peak integration was performed manually, and sterols were quantified from SIM analyses against the internal standard. Unless stated otherwise, MAS amounts are given as a percentage of the control.

HepG2 cells [2] = assay: Isotopomer spectral analysis (ISA) of flux of 13C-acetate to lathosterol and cholesterol; type: cell-based, Human; details: 10 µM, 12 h, 1 mM 1-13C-acetate
Experimental: as §1
(§3) Analyses were performed on a Hewlett-Packard GC/MS system (5890 series II GC interfaced to a 5971 mass selective detector) equipped with a DB-XLB column (30 m x 0.25 mm i.d. x 0.25 µm film; J&W). Gas-chromatography was done in the splitless mode with temperature programming as follows: 150°C for 1 min, followed by 20°C/min up to 260°C and 10°C/min up to 280°C (hold for 15 min). Mass spectral data were collected either in the full-scan mode (m/z 50-550) or by selective ion monitoring (SIM). For SIM analyses the electron multiplier voltage was raised by 300 V after the elution of lathosterol to increase the sensitivity of detection for lanosterol, dihydrolanosterol, methylsterols, dimethylsterols and plant sterols. The internal standard epicoprostanol was monitored at m/z 370. In unlabeled experiments, cholesterol precursors and plant sterols were monitored by the following ions: desmosterol (m/z 456; 441 and 351); Δ8-cholestenol (m/z 458); lathosterol (m/z 458); monounsaturated methylsterols (m/z 472); diunsaturated methylsterols (m/z 470); monounsaturated dimethylsterols (m/z 486); diunsaturated dimethylsterols (m/z 484); triunsaturated dimethylsterols (m/z 482); lanosterol (m/z 498 and 393) and dihydrolanosterol (m/z 500 and 395). Peak integration was performed manually, and sterols were quantified from SIM analyses against the internal standard. Unless stated otherwise, MAS amounts are given as a percentage of the control. When 1-^13C-acetate was used in the culture medium for ISA, up to 10 ions (M+0- M+10) were monitored for the TMS derivatives of lathosterol (m/z 458-468), T-MAS (m/z 484-494) and FF-MAS (m/z 482-492).
ISA was carried out as described previously (25) by incubating cells with 1-13C-acetate. The isotopomer distribution in sterols synthesized from 1-^13C-acetate provided the fractional synthesis rate g(t) of the product and the enrichment D of the labeled precursor pool. These parameters were calculated by nonlinear regression analysis as described previously (25,26). Because here we used the molecular ions containing the TMS group for the ISA calculations, the ISA program was modified to correct for the additional C, H and Si atoms from the derivatization reagent. Statistical differences were assessed by Student's t-test and considered significant for P<0.05.

Δ24-reductase = molecular target: T1, Δ24-reductase (Homo sapiens, UniProt Q15392); assay: Δ24-reductase assay (conversion of lanosterol to dihydrolanosterol in the presence of miconazole); type: cell-based; details: HepG2 cells; conversion of lanosterol to dihydrolanosterol with added miconazole
T1 construct: endogenous in cells; host or cells: HepG2
T1 sequence (Q15392 23-516): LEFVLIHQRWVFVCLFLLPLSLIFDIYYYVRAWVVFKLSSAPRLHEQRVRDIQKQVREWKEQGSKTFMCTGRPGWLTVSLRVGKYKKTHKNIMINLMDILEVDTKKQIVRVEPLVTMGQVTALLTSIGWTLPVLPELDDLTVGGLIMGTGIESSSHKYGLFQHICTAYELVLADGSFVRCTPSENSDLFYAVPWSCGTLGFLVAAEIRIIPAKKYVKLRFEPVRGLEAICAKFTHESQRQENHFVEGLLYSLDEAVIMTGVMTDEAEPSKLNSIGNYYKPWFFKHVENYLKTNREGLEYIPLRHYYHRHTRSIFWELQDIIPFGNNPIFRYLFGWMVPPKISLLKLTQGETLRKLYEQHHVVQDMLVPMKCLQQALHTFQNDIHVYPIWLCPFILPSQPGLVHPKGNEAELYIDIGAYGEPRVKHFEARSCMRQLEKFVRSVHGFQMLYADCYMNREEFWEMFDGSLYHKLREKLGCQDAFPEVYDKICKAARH
Experimental: HepG2 cells were incubated for 12 h with 10 µM simvastatin (a kind gift from M. Stapff (MSD, Germany)) to deplete cholesterol precursors. Thereafter, the medium was changed to one containing 10 µM simvastatin, 10 µM miconazole (an inhibitor of 14α-demethylation) and 6 µg/dish lanosterol. After 12 h incubation, neutral sterols were extracted as described above, and the samples were monitored for lanosterol (m/z 498 (M^+) and m/z 393 (M-TMSOH-CH3)) and dihydrolanosterol (m/z 500 (M^+) and m/z 395 (M-TMSOH-CH3)) by GC/MS. Dihydrolanosterol was quantified by comparing the ratio of SIM abundances at m/z 395 and 370 (epicoprostanol) against a standard curve constructed from SIM results on mixtures of authentic dihydrolanosterol and epicoprostanol. Desmosterol was quantified analogously by SIM.

rat testis = assay: Levels of C29-sterols in rat testis slices, GC/MS (SIM); type: cell-based, Sprague-Dawley rats; details: 9 h, n=3, ± SD
Experimental: Unless specified otherwise, potent inhibitors, drugs, chemicals, and cell culture supplies were purchased from Sigma. T-MAS and FF-MAS were synthesized as reported recently (5) and used as reference compounds. 1-^13C-acetate was obtained from Cambridge Isotope Laboratories. Rat testes were obtained from Sprague-Dawley rats (weight <50g).
as §1, §2, §3

[3] = 12-h incubation with 10 µM, n=3 incubations
[4] = Conc. 1 µM (combinations 1 + 1 µM), 24 h, n=3
[5] = Conc. 10 µM (combinations 10 + 10 µM), 12 h, n=2
[6] = Conc. 10 µM (combination 10 + 10 µM)

| Compound | Increases in FF-MAS (HepG2 cells [1]) [fold] | Increases in T-MAS (HepG2 cells [1]) [fold] | Dienol (m/z 486) (HepG2 cells [1]; [4]) | Enol T-MAS (m/z 484) (HepG2 cells [1]; [4]) | Dienol (m/z 486) (HepG2 cells [1]; [5]) | Enol T-MAS (m/z 484) (HepG2 cells [1]; [5]) | Trienol FF-MAS (m/z 482) (HepG2 cells [1]; [5]) | suppression of the Δ24 reduction step (accumulation of desmosterol) (HepG2 cells [1]) | lowering of the total amount of lathosterol (HepG2 cells [2]) | reduction of de novo lathosterol synthesis (HepG2 cells [2]) | order of suppression of Δ24 reduction (Δ24-reductase) | Dienol (m/z 486) (rat testis; [6]) | Enol T-MAS (m/z 484) (rat testis; [6]) | Trienol FF-MAS (m/z 482) (rat testis; [6]) | Dienol (m/z 486) (rat testis; Conc. 20 µM) | Enol T-MAS (m/z 484) (rat testis; Conc. 20 µM) | Trienol FF-MAS (m/z 482) (rat testis; Conc. 20 µM) | further results |
| --- | --- | --- | --- | --- | --- | --- | --- | --- | --- | --- | --- | --- | --- | --- | --- | --- | --- | --- |
| CC(=O)[C@H]1CC[C@H]2[C@@H]3CCC4=CC(=O)CC[C@]4(C)[C@H]3CC[C@]12C [Progesterone] | 4 | 9 | 77 ± 9 % of control | 192 ± 41 % of control | 26 ± 3 % of control | 1000 ± 106 % of control | 3335 ± 397 % of control | strongly suppressed | ca. 50% | more than 60% | pregnenolone > progesterone > 17α-OH-pregnenolone >> 17α-OH-progesterone | 109 ± 1 % of control | 107 ± 1 % of control | 336 ± 12 % of control | 103 ± 14 % of control | 129 ± 10 % of control | 487 ± 37 % of control | desmosterol as share of the cholesterol content of the cells (HepG2 cells [1]; 12-h incubation with 10 µM): 2.1%; cholesterol (HepG2 cells [1]; [3]): 269 ± 3 µg; desmosterol (HepG2 cells [1]; [3]): 5.7 ± 0.07 µg |
| CC(=O)[C@@]1(O)CC[C@H]2[C@@H]3CCC4=CC(=O)CC[C@]4(C)[C@H]3CC[C@@]21C [17α-OH-Progesterone, 17α-Hydroxy-progesterone] | 4 | 9 | 246 ± 26 % of control | 162 ± 15 % of control | 2384 ± 236 % of control | 2003 ± 201 % of control | 406 ± 52 % of control | not | ca. 50% | more than 60% | pregnenolone > progesterone > 17α-OH-pregnenolone >> 17α-OH-progesterone | 199 ± 19 % of control | 201 ± 26 % of control | 171 ± 8 % of control | 223 ± 25 % of control | 225 ± 22 % of control | 240 ± 40 % of control | Trienol FF-MAS (m/z 482) (HepG2 cells [1]; [4]): 120 ± 14 % of control |
